In patent US11014884B2 (Global Blood Therapeutics, Inc., priority 2018, dated 2021):

Target: T1, hemoglobin (Homo sapiens, UniProt P69905)
T1 construct: from tissue; host or cells: whole blood (red blood cells)
Assay: Whole blood assay: oxygen equilibrium curves (Hemox Analyzer), change in p50
Format: cell-based
Conditions: equimolar to hemoglobin, 1 h at 37° C.
Description: Oxygen equilibrium curves (OECs) were collected using a TCS Hemox Analyzer (TCS Scientific Company, New Hope, Pa., USA) to measure changes in the binding affinity of 02 to Hb. Whole blood was incubated for 1 h at 37° C. with the indicated compounds in an equimolar ratio of hemoglobin to compound and diluted into TES (2-[[1,3-dihydroxy-2-(hydroxymethyl)propan-2-yl]amino]ethanesulfonic acid)/saline buffer prior to measurements. For example, for whole blood at 20% hematocrit [Hct], which corresponds to 1 mM Hb, a compound concentration of 1 mM was used (for example, for compounds 1-53), and the incubated sample diluted 50- to 100-fold. The concentration for compound 54 was 1.7 mM and in equimolar ratio to hemoglobin. The diluted samples were then oxygenated with compressed air within the Hemox Analyzer, and the OECs were collected during deoxygenation as previously described (Guarnone et al., Haematologica, 1995, 80, 426-430). p50 (partial pressure of 02 at which Hb is 50% saturated with 02) values were obtained using a non-linear regression analysis. Percentage change in p50 [Δp50(%)] was calculated as follows: Δp50(%)=[(p50 of control)−p50 with compound)/p50 control]×100.

[1] = whole blood 20% Hct (1 mM Hb), compound 1 mM

T1 sequence (P69905 2-142 limits assumed): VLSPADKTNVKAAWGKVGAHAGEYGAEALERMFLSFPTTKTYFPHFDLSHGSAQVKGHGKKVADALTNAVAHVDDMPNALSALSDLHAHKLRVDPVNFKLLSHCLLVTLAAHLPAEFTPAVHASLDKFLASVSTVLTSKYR
T1 sequence (P68871 2-147 partner limits assumed): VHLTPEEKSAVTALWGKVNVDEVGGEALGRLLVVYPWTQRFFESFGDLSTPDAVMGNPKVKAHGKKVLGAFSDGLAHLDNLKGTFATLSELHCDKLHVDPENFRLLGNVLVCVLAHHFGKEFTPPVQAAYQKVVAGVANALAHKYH

Row | SMILES | Delta-p50 (%) [1] [%] | Delta-p50 (%) (whole blood, compound 1.7 mM)
1 | CCOc1cccc(C(=O)N2CCCC[C@H]2COc2cccc(O)c2C=O)c1C=O [Compound 39, 2-ethoxy-6-[(2S)-2-[(2-formyl-3-hydroxyphenoxy)methyl]piperidine-1-carbonyl]benzaldehyde] | 79.5 | 
2 | COc1cccc(C(=O)N2CCOC[C@H]2COc2cccc(O)c2C=O)c1C=O [Compound 48, 2-[(3S)-3-[(2-formyl-3-hydroxyphenoxy)methyl]morpholine-4-carbonyl]-6-methoxybenzaldehyde] | 70.3 | 
3 | O=Cc1ccccc1C(=O)N1CCCC[C@@H]1COc1cccc(O)c1C=O [Compound 17, 2-{[(2R)-1-(2-formylbenzoyl)piperidin-2-yl]methoxy}-6-hydroxybenzaldehyde] | 67 | 
4 | COc1cccc(C(=O)N2CCCC[C@@H]2COc2cccc(O)c2C=O)c1C=O [Compound 49, 2-[(2R)-2-[(2-formyl-3-hydroxyphenoxy)methyl]piperidine-1-carbonyl]-6-methoxybenzaldehyde] | 59 | 
5 | COc1ccc(C=O)c(C(=O)N2CCCC[C@H]2COc2cccc(O)c2C=O)c1 [Compound 15, 2-[(2S)-2-[(2-formyl-3-hydroxyphenoxy)methyl]piperidine-1-carbonyl]-4-methoxybenzaldehyde] | 19 | 
6 | O=Cc1cccc(-c2ncccc2COc2cccc(O)c2C=O)n1 [Compound 10, 3′-[(2-formyl-3-hydroxyphenoxy)methyl]-[2,2′-bipyridine]-6-carbaldehyde] | 0.2 | 
7 | O=Cc1ccc(Cl)cc1C(=O)N1CCCC[C@H]1COc1cccc(O)c1C=O [Compound 16, 4-chloro-2-[(2S)-2-[(2-formyl-3-hydroxyphenoxy)methyl]piperidine-1-carbonyl]benzaldehyde] | 39 | 
8 | O=Cc1cccc(-c2cccnc2COc2cccc(O)c2C=O)n1 [Compound 32, 2′-[(2-formyl-3-hydroxyphenoxy)methyl]-[2,3′-bipyridine]-6-carbaldehyde] | 50 | 
9 | O=Cc1nc(-c2ncccc2COc2cccc(O)c2C=O)cs1 [Compound 12, 4-{3-[(2-formyl-3-hydroxyphenoxy)methyl]pyridin-2-yl}-1,3-thiazole-2-carbaldehyde] | 2.9 | 
10 | O=Cc1cnccc1C(=O)N1CCCC[C@H]1COc1cccc(O)c1C=O [Compound 53, 4-[(2S)-2-[(2-formyl-3-hydroxyphenoxy)methyl]piperidine-1-carbonyl]pyridine-3-carbaldehyde] | 71.9 | 
11 | O=Cc1cc(-c2ncccc2COc2cccc(O)c2C=O)ccn1 [Compound 9, 3-[(2-formyl-3-hydroxyphenoxy)methyl]-[2,4′-bipyridine]-2′-carbaldehyde] | 36.1 | 
12 | O=Cc1c(O)cccc1OC[C@@H]1CCCCN1C(=O)c1cccc(Cl)c1C=O [Compound 51, 2-chloro-6-[(2S)-2-[(2-formyl-3-hydroxyphenoxy)methyl]piperidine-1-carbonyl]benzaldehyde] | 65.5 | 
13 | O=Cc1ccc(C(=O)N2CCCC[C@H]2COc2cccc(O)c2C=O)cc1 [Compound 13, 2-{[(2S)-1-(4-formylbenzoyl)piperidin-2-yl]methoxy}-6-hydroxybenzaldehyde] | 45.4 | 
14 | O=Cc1ccccc1C(=O)N1CCC[C@H](COc2cccc(O)c2C=O)C1 [Compound 29, 2-{[(3S)-1-(2-formylbenzoyl)piperidin-3-yl]methoxy}-6-hydroxybenzaldehyde] | 82 | 
15 | O=Cc1c(O)cccc1OC[C@@H]1COCCN1C(=O)c1cccc(O)c1C=O [Compound 4, (S)-2-((4-(2-formyl-3-hydroxybenzoyl)morpholin-3-yl)methoxy)-6-hydroxybenzaldehyde] | 30.9 | 
16 | O=Cc1cccc(-c2cnccc2COc2cccc(O)c2C=O)n1 [Compound 31, 4′-[(2-formyl-3-hydroxyphenoxy)methyl]-[2,3′-bipyridine]-6-carbaldehyde] | 3.5 | 
17 | O=Cc1cccc(C(=O)N2CCC[C@H](COc3cccc(O)c3C=O)C2)c1 [Compound 22, 2-{[(3S)-1-(3-formylbenzoyl)piperidin-3-yl]methoxy}-6-hydroxybenzaldehyde] | 68.5 | 
18 | O=Cc1cccc(-c2ccncc2COc2cccc(O)c2C=O)n1 [Compound 42, 3′-[(2-formyl-3-hydroxyphenoxy)methyl]-[2,4′-bipyridine]-6-carbaldehyde] | 17.4 | 
19 | O=Cc1cccc(-c2ccccc2COc2cccc(O)c2C=O)n1 [Compound 24, 6-{2-[(2-formyl-3-hydroxyphenoxy)methyl]phenyl}pyridine-2-carbaldehyde] | 11 | 

Row | SMILES | Delta-p50 (%) [1] [%] | Delta-p50 (%) (whole blood, compound 1.7 mM)
20 | CCOc1cccc(C(=O)N2CCC[C@H]2COc2cccc(O)c2C=O)c1C=O [Compound 52, 2-ethoxy-6-[(2S)-2-[(2-formyl-3-hydroxyphenoxy)methyl]pyrrolidine-1-carbonyl]benzaldehyde] | 75.5 | 
21 | O=Cc1c(O)cccc1OC[C@@H]1CCCN1C(=O)c1cccc(O)c1C=O [Compound 30, 2-[(2S)-2-[(2-formyl-3-hydroxyphenoxy)methyl]pyrrolidine-1-carbonyl]-6-hydroxybenzaldehyde] | 45 | 
22 | CC1(COc2cccc(O)c2C=O)COCCN1C(=O)c1cccc(O)c1C=O (centres unmarked) [Compound 54, 2-((4-(2-formyl-3-hydroxybenzoyl)-3-methylmorpholin-3-yl)methoxy)-6-hydroxybenzaldehyde] |  | 72.6
23 | O=Cc1ccc(C(=O)N2CCC[C@@H](COc3cccc(O)c3C=O)C2)cc1 [Compound 28, 2-{[(3R)-1-(4-formylbenzoyl)piperidin-3-yl]methoxy}-6-hydroxybenzaldehyde] | 45 | 
24 | CCOc1ccc(-c2ncccc2COc2cccc(O)c2C=O)nc1C=O [Compound 45, 5-ethoxy-3′-[(2-formyl-3-hydroxyphenoxy)methyl]-[2,2′-bipyridine]-6-carbaldehyde] | 55.7 | 
25 | O=Cc1ccccc1N1C(=O)CC[C@H]1COc1cccc(O)c1C=O [Compound 21, 2-{[(2S)-1-(2-formylphenyl)-5-oxopyrrolidin-2-yl]methoxy}-6-hydroxybenzaldehyde] | 23 | 
26 | O=Cc1ccc(C(=O)N2CCC[C@H](COc3cccc(O)c3C=O)C2)cc1 [Compound 23, 2-{[(3S)-1-(4-formylbenzoyl)piperidin-3-yl]methoxy}-6-hydroxybenzaldehyde] | 20 | 
27 | O=Cc1ccc(F)cc1C(=O)N1CCCC[C@H]1COc1cccc(O)c1C=O [Compound 35, 4-fluoro-2-[(2S)-2-[(2-formyl-3-hydroxyphenoxy)methyl]piperidine-1-carbonyl]benzaldehyde] | 70 | 
28 | O=Cc1ccccc1C(=O)N1CCOC[C@H]1COc1cccc(O)c1C=O [Compound 36, 2-{[(3S)-4-(2-formylbenzoyl)morpholin-3-yl]methoxy}-6-hydroxybenzaldehyde] | 77 | 
29 | O=Cc1ccccc1C(=O)N1CCCCC[C@H]1COc1cccc(O)c1C=O [Compound 37] | 31.5 | 
30 | COc1cccc(C(=O)N2CCCC[C@H]2COc2cccc(O)c2C=O)c1C=O [Compound 33, 2-[(2S)-2-[(2-formyl-3-hydroxyphenoxy)methyl]piperidine-1-carbonyl]-6-methoxybenzaldehyde] | 84 | 
31 | O=Cc1cccc(C(=O)N2CCC[C@@H](COc3cccc(O)c3C=O)C2)c1 [Compound 27, 2-{[(3R)-1-(3-formylbenzoyl)piperidin-3-yl]methoxy}-6-hydroxybenzaldehyde] | 74 | 
32 | O=Cc1cc(-c2ccccc2COc2cccc(O)c2C=O)co1 [Compound 18, 4-{2-[(2-formyl-3-hydroxyphenoxy)methyl]phenyl}furan-2-carbaldehyde] | 17 | 
33 | O=Cc1ccccc1C(=O)N1CCC[C@H]1COc1cccc(O)c1C=O [Compound 20, 2-{[(2S)-1-(2-formylbenzoyl)pyrrolidin-2-yl]methoxy}-6-hydroxybenzaldehyde] | 32 | 
34 | O=Cc1c(O)cccc1C(=O)N1CCCC[C@H]1COc1ccc2c(c1C=O)CCO2 [Compound 44, 5-{[(2S)-1-(2-formyl-3-hydroxybenzoyl)piperidin-2-yl]methoxy}-2,3-dihydro-1-benzofuran-4-carbaldehyde] | 34.2 | 
35 | Cc1ccc(-c2ncccc2COc2cccc(O)c2C=O)nc1C=O [Compound 41, 3′-[(2-formyl-3-hydroxyphenoxy)methyl]-5-methyl-[2,2′-bipyridine]-6-carbaldehyde] | 29.1 | 
36 | CC(C)Oc1cccc(C(=O)N2CCCC[C@H]2COc2cccc(O)c2C=O)c1C=O [Compound 40, 2-[(2S)-2-[(2-formyl-3-hydroxyphenoxy)methyl]piperidine-1-carbonyl]-6-(propan-2-yloxy)benzaldehyde] | 72.5 | 
37 | CCOc1cccc(C(=O)N2CCOC[C@H]2COc2cccc(O)c2C=O)c1C=O [Compound 3, 2-ethoxy-6-[(3S)-3-[(2-formyl-3-hydroxyphenoxy)methyl]morpholine-4-carbonyl]benzaldehyde] | 73.6 | 
38 | Cc1cccc(C(=O)N2CCCC[C@@H]2COc2cccc(O)c2C=O)c1C=O [Compound 46, 2-[(2R)-2-[(2-formyl-3-hydroxyphenoxy)methyl]piperidine-1-carbonyl]-6-methylbenzaldehyde] | 69 | 
